Test results as given in ChEMBL document CHEMBL3414482, “Structure-activity relationship of pyrrolyl diketo acid derivatives as dual inhibitors of HIV-1 integrase and reverse transcriptase ribonuclease H domain” (J Med Chem, 2015).

Molecular target: Human immunodeficiency virus type 1 reverse transcriptase (Human immunodeficiency virus 1, UniProt Q72547)

| SMILES | IC50 [µM] |
| --- | --- |
| CCOC(=O)/C(N)=C/C(=O)c1cn(Cc2ccc(F)cc2)cc1-c1ccccc1 | 72 |
| CCOC(=O)/C(O)=C/C(=O)/C=C/c1cc(C(=O)c2ccc(F)cc2)cn1C | 28 |
| CCOC(=O)/C(O)=C/C(=O)/C=C/c1cn(Cc2ccc(F)cc2)cc1-c1ccccc1 | 3 |
| C/C(C(=O)c1cn(Cc2ccc(F)cc2)cc1-c1ccccc1)=C(/O)C(=O)O | 64 |
| O=C(/C=C(\O)C(=O)O)/C=C/c1cc(C(=O)c2ccc(F)cc2)cn1Cc1ccccc1 | 7.5 |
| Cn1cc(C(=O)c2ccc(F)cc2)cc1/C=C/C(=O)/C=C(\O)C(=O)O | 20 |
| N/C(=C\C(=O)c1cn(Cc2ccc(F)cc2)cc1-c1ccccc1)C(=O)O (mixture of isomers) | 2 |
